Assay results from patent US20110092517A1, “Use of PPAR Delta Ligands for the Treatment or Prevention of Inflammation or Energy Metabolism/Production Related Diseases” (Cerenis Therapeutics S.A. & Nippon Chemiphar Co., Ltd., priority 2009, published 2011).
Several values for one entry are separate records, joined by “and”; a condition that tells them apart may be missing. Equal entries are not always repeated. Entries after “also recorded” stand apart in the source; their conditions may differ. Where two headings read alike, the source gives them in different places.

How the values were obtained:
[1] = test system: Tibialis-anterior muscle fibers; assay: Histochemical staining for succinate dehydrogenase (SDH) of tibialis-anterior muscle, quantification of oxidative fibers; assay type: in vivo, rat; details: for Biopsis #1 Non-oxydative fibers (pixels) / Biopsis #1 oxydative fibers (% from total pixels) / Biopsis #1 oxydative fibers (pixels) / Biopsis #2 Non-oxydative fibers (pixels) / Biopsis #2 oxydative fibers (% from total pixels) / Biopsis #2 oxydative fibers (pixels): rat tibialis-anterior, individual animals
Experimental: The muscle fibers on a set of animals that were treated with the compound 1.1 at the doses of 3 or 10 mg/kg once a day for 3 weeks are analyzed. Tibialis-anterior from 3 animals per group were used for both morpho-histology analysis and molecular analysis of specific markers of mitochondrial activities. The histology analysis was preformed on cryosection followed by a histochemical staining for succinate dehydrogenase (SDH) (Luquet S. et al., FASEB J, 2003. 17(15): p. 2299-301). Two biopsies of each muscle samples were generated and analyzed.
The quantification was performed by using Adobe Photoshop software (Lehr et al. Histochem Cytochem, 1997. 45(11): p. 1559-65, J Histochem Cytochem, 1999. 47(1): p. 119-26), and was based on pictures (in TIFF format) obtained from different slides of muscle (Tibialis-Anterior).
For each picture identical areas of about 57000 pixels at similar magnification were selected and the surface occupied by the stained fibers was measured (FIG. 1). The results are expressed as the percentage of the area of highly-stained and moderately-stain fibers from the total area selected. The analysis is performed in a blinded fashion.
Statistical analysis (Prism-Graphpad) was performed using unpaired T-test with: * corresponding to p<0.05 and ** to p<0.01.

[2] = Euglycemic-hyperinsulinemic 2 steps clamp with 3H-glucose after 5 weeks of treatment in WD fed rats; assay type: in vivo, rat
Experimental: After 4 weeks of treatment, a catheter was implanted into the femoral vein under isoflurane anaesthesia and a period of 5-6 days was respected for recovery. […] The morning of the clamp procedure, rats were treated and fasted for 6 hours prior to tracer, glucose and insulin infusions. The beginning of the clamp procedure was performed in the middle of the dark cycle.
The euglycemic hyperinsulinemic 2 steps insulin clamp was performed using 0.2 U/kg/h and 0.8 U/kg/h insulin infusion associated with 3H-glucose infusion. We then assessed:
During the clamp procedure, a bolus (30 μCi) of D-[3-3H]glucose was first injected followed by 4 μCi/min/kg infusion rate during all the experiment to ensure a detectable plasma D[3-3H]glucose enrichment. A bolus of insulin (100 mU) was first injected, and insulin was then infused at a rate of 0.2 U/kg/h for the first 2 hours and 0.8 U/kg/h from 120 minutes to 210 minutes.
Throughout the infusion, glycaemia was assessed with a blood glucose meter from the tip of the tail vein when needed. Euglycemia was maintained by periodically (every 10 minutes) adjusting a variable infusion of 30% glucose. Plasma glucose concentrations and D-[3-3H]glucose specific activity were determined during stable phase in 10 μl of blood sampled from the tip of the tail vein every 20 minutes from 60 to 120 minutes during the first step and from 150 to 210 minutes during the second step.
For glucose turnover measurements, D-[3-3H]glucose enrichments were determined from total blood after deproteinization by a Zn(OH)2 precipitate. Briefly, an aliquot of the supernatant was evaporated to dryness to determine the radioactivity corresponding to D-3-3H. In a second aliquot of the same supernatant, glucose concentration was assessed by the glucose oxidase method (Biomérieux, France).
Calculations for glucose turnover measurements were made from parameters obtained during the infusions in steady-state condition ([…]). Briefly, the D-[3-3H]glucose specific activity was calculated by dividing the D-[3-3H]glucose enrichment by the plasma glucose concentration. The whole body glucose turnover rate was calculated by dividing the rate of D[3-3H]glucose by the D-[3-3H]glucose plasma specific activity. For each rat, the mean values were calculated and averaged with values from rats of the same group. The whole body glycolysis rate was measured by assessing the amount of tritiated water accumulated in the blood during the 3H-glucose infusion and the whole body glycogen synthesis rate was calculated by the difference between the whole body glucose turnover and the whole body glycolysis rate.

mouse PPARδ = molecular target: T1, mouse PPARδ (Mus musculus, UniProt P35396); assay: GAL4-PPAR chimera transactivation assay in CV-1 cells at 10% or 0.1% serum (Example 4); assay type: cell-based; details: read-out: GAL4-chimera (mouse) EC50 (μM) hPPARδ
T1 construct: amino acids 139-440 for m; expressed in transfected cells; host or cells: CV-1
T1 sequence (P35396 139-440): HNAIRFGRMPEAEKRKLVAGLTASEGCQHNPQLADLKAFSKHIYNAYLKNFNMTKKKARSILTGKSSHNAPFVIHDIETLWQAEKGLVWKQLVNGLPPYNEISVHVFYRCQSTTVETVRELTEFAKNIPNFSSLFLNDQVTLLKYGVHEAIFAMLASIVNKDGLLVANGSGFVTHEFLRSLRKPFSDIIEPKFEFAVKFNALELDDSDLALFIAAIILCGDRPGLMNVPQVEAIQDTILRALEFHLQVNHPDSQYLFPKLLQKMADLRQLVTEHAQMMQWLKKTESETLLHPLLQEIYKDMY

[3] = Body weight follow-up during treatment in rats fed a high fat/medium fructose diet (WD); assay type: in vivo, rat; details: oral once daily
From the text: The first set of rats was undergoing an OGTT after 3 weeks of treatment (half rats/group of the clamp arm) and the second set was also undergoing an OGTT after 3 weeks of treatment (half rats/group of clamp arm) and the Histology study (3 rats/group). […] Homogenous mild obese and insulin resistant rats were allocated into the different treatment groups and western diet was continued until the end of the experiment. Given that, the 2 series started with a gap of one week Dosage regimen: Rats were treated once daily via the oral route, in the morning. The duration of the treatment was between 5 and 5.5 weeks. […], 10 mg/Kg (n=12) […] The second set of rats was weighted at 8:30 on days 17 and 21, at 1:45 pm on day 24 and at 11:10 am on day 28.

[4] = 3 mg/kg once a day for 3 weeks, listed as COMP.I.1, 3 mg/kg
[5] = 10 mg/kg once a day for 3 weeks
[6] = 10 mg/kg once a day for 3 weeks, listed as COMP.I.1, 10 mg/kg

EC50 (mouse PPARδ; 0.1% serum): 0.065 ± 0.001 µM | EC50 (mouse PPARδ; 10% serum): 0.327 ± 0.07 µM
Compound: Cc1cc(C(=O)CCc2sc(-c3ccc(C(F)(F)F)cc3)nc2C(C)C)ccc1OCC(=O)O [compound I.1, 4-[3-[4-Isopropyl-2-[4-(trifluoromethyl)phenyl]-5-thiazolyl]propionyl]-2-methylphenoxyacetic acid]
Increase of the number of oxidative fiber in tibialis muscle ([1]; WD fed rats, SDH histology, dose not specified): about 50% | Biopsis #1 Non-oxydative fibers (pixels) [1, 4]: 15343 pixels and 16157 pixels and 27185 pixels | Biopsis #1 oxydative fibers (% from total pixels) [1, 4]: 73.56 % from total pixels and 72.16 % from total pixels and 51.41 % from total pixels | Biopsis #1 oxydative fibers (pixels) [1, 4]: 42685 pixels and 41871 pixels and 28767 pixels | Biopsis #2 Non-oxydative fibers (pixels) [1, 4]: 16208 pixels and 1109 pixels and 16402 pixels | Biopsis #2 oxydative fibers (% from total pixels) [1, 4]: 72.07 % from total pixels and 81.01 % from total pixels and 69.92 % from total pixels | Biopsis #2 oxydative fibers (pixels) [1, 4]: 41820 pixels and 47009 pixels and 38128 pixels | Biopsis #2 Non-oxydative fibers (pixels) [1, 5]: 9243 pixels | Biopsis #2 oxydative fibers (% from total pixels) [1, 5]: 83.06 % from total pixels | Biopsis #2 oxydative fibers (pixels) [1, 5]: 45326 pixels | Biopsis #1 Non-oxydative fibers (pixels) [1, 6]: 18992 pixels and 27170 pixels and 16958 pixels | Biopsis #1 oxydative fibers (% from total pixels) [1, 6]: 68.84 % from total pixels and 52.66 % from total pixels and 70.78 % from total pixels | Biopsis #1 oxydative fibers (pixels) [1, 6]: 35030 pixels and 30218 pixels and 41070 pixels | Insulin resistance / insulin sensitizing effect (overall) ([2]; WD fed rats, after 5 weeks, compound I.1 dose not specified (3 and 10 mg/kg groups), pioglitazone 10, metformin 50 mg/kg): improved insulin resistance in a lesser extent than pioglitazone and metformin, but was more effective than GW501516; also recorded: insulin sensitizing effect, less marked than metformin | Whole body glucose oxidation ([2]; WD fed rats, clamp after 5 weeks, metformin 50 mg/kg, compound I.1 dose not specified, alone or associated): tended to increase | Increase of GIR (glucose infusion rate) during the first step ([2]; clamp 0.2 U/kg/h insulin, after 5 weeks, compound I.1 3 mg/kg): 105% | Decrease of HGP (hepatic glucose production) ([2]; clamp 0.2 U/kg/h insulin, compound I.1 3 mg/kg): 22% | Increase of glycolysis ([2]; clamp 0.8 U/kg/h insulin, metformin 50, GW501516 10, compound I.1 10 mg/kg (alone or +metformin 50 mg/kg)): 42% | Body weight / body weight gain during treatment ([3]; compound I.1 3 mg/kg (alone or +metformin 50 mg/kg)): did not affect body weight gain | Body weight / body weight gain during treatment ([3]; pioglitazone 10, metformin 50, GW501516 10, compound I.1 10 mg/kg (alone or +metformin 50 mg/kg)): decreased thereafter body weight gain, until a significant effect after 4 weeks of treatment
